Holding throughout (assay type): cell-based
The subject of assay [1] is neopterin formation in PHA-stimulated PBMC. The assay is described as follows: Example 16: neopterin formation in PHA-stimulated human PBMC. The note with it: PHA 10 μg/ml, 48 h. Here is the method:
(§1) PBMC were isolated from whole blood obtained from healthy donors, of whom informed consent was obtained that their donated blood unit was used for scientific purposes if not otherwise used. Separation of blood cells was performed using density centrifugation (Lymphoprep, Nycomed Pharma AS, Oslo, Norway). After isolation, PBMC were washed three times in phosphate buffered saline containing […] [0.5 mmol/L]. Cells were maintained in RPMI 1640 supplemented with 10% heat-inactivated fetal calf serum (Biochrom, Berlin, Germany), 1% of 200 mmol/L glutamine (Serve, Heidelberg, Germany) and 0.1% of gentamicin (50 mg/ml, Bio-Whittaker, Walkersville, Md.) in a humidified atmosphere containing 5% CO2 for 48 h. This procedure was observed earlier to reveal best reproducible results when applied for testing of anti-inflammatory effects of compounds or drugs (Widner et al., 1997). Average tryptophan content in the supplemented RPMI 1640 medium was 31.5 μmol/L. For each of the three experiments run in duplicates, PBMC were freshly prepared. Isolated PBMC were plated at a density of 1.5×10^6 cells/ml in supplemented RPMI 1640, preincubated for 30 minutes with or without BC preparations and stimulated or not with 10 μg/ml PHA for 48 h.
(§2) After incubation of cells for 48 h, supernatants were harvested by centrifugation and tryptophan and kynurenine concentrations were measured by high performance liquid chromatography (HPLC) using 3-nitro-L-tyrosine as internal standard (Widner and others 1997). To estimate IDO activity, the kynurenine to tryptophan ratio (kyn/trp) was calculated and expressed as μmol kynurenine/mmol tryptophan (Widner et al., 1997). Neopterin concentrations were determined by ELISA (BRAHMS, Hennigsdorf/Berlin, Germany) according to the manufacturer's instructions with a detection limit of 2 nmol/L.
(§3) For statistical analysis, the Statistical Package for the Social Sciences (version 14 SPSS, Chicago, Ill., USA) was used. […] P-values below 0.05 were considered to indicate significant differences.

Assay [2] relates to indoleamine 2,3-dioxygenase (IDO) activity in unstimulated PBMC. The assay is described as follows: Example 16: IDO activity (kyn/trp) in unstimulated human PBMC. The note with it: 20 mg/ml, 48 h. Here is the method: (§4) PBMC were isolated from whole blood obtained from healthy donors, of whom informed consent was obtained that their donated blood unit was used for scientific purposes if not otherwise used. Separation of blood cells was performed using density centrifugation (Lymphoprep, Nycomed Pharma AS, Oslo, Norway). After isolation, PBMC were washed three times in phosphate buffered saline containing 0.2% EDTA [0.5 mmol/L]. Cells were maintained in RPMI 1640 supplemented with 10% heat-inactivated fetal calf serum (Biochrom, Berlin, Germany), 1% of 200 mmol/L glutamine (Serve, Heidelberg, Germany) and 0.1% of gentamicin (50 mg/ml, Bio-Whittaker, Walkersville, Md.) in a humidified atmosphere containing 5% CO2 for 48 h. […]
(§5) After incubation of cells for 48 h, supernatants were harvested by centrifugation and tryptophan and kynurenine concentrations were measured by high performance liquid chromatography (HPLC) using 3-nitro-L-tyrosine as internal standard (Widner and others 1997). To estimate IDO activity, the kynurenine to tryptophan ratio (kyn/trp) was calculated and expressed as μmol kynurenine/mmol tryptophan (Widner et al., 1997). Neopterin concentrations were determined by ELISA (BRAHMS, Hennigsdorf/Berlin, Germany) according to the manufacturer's instructions with a detection limit of 2 nmol/L. […]

In assay [3] the test system is neopterin formation in unstimulated PBMC. The assay is described as follows: Example 16: neopterin formation in unstimulated human PBMC. The conditions noted are these: 48 h. Here is the method: as §4, §5
Assay [4] has as its system indoleamine 2,3-dioxygenase (IDO) activity in PHA-stimulated PBMC. The assay is described as follows: Example 16: IDO activity (kyn/trp) in PHA-stimulated human PBMC. The note with it: PHA 10 μg/ml, 48 h. Here is the method: as §1, §2, §3

As for lactoferrin, the “neopterin formation as % of PHA control” value in assay [1] (2 mg/ml) is recorded as 61.3±11.7%; in assay [1] (20 mg/ml), 31.1±3.9%. In assay [2], the “IDO activity (kyn/trp) as % of unstimulated control” value was 54.7±5.0%. Further, the “neopterin formation as % of unstimulated control” value in assay [3] (0.2 mg/ml) amounted to 125±2.8%; in assay [3] (2 mg/ml), 132±4.1%. Moreover, the “IDO activity (kyn/trp) as % of PHA control” value in assay [4] (0.2 mg/ml) amounted to 34.0±9.7%.
On to “phytohemagglutinin [phytohemagglutinin (PHA)]”, for which, in assay [1] (PBMC), the “increase of neopterin concentration versus unstimulated PBMC” value is “about 3.6 fold” and the “neopterin concentration in the supernatant” value amounted to 13.2 ± 3.6 nmol/L. In assay [4] (PBMC), the Kyn/trp was 1312±459 μmol/mmol, the “increase of IDO activity versus unstimulated PBMC” value was “approximately 47 fold”, the “kynurenine concentration in the supernatant” value worked out at 9.8 ± 1.3 µmol/L and the “tryptophan content in the supernatant” value was found to be 8.2 ± 2.0 µmol/L.

The values above are taken from patent US8637075B2, “Colostrum composition” (Pharma GP ApS, priority 2008, dated 2014).
